In US20030134883A1, “14-Methyl-epothilones” (priority 2001, published 2003):

Tests used:
MCF-7 cancer cell line = assay: Cytotoxicity in cell culture (FIG. 3), MCF-7; assay type: cell-based; settings: MCF-7 cells, in vitro
NCI-ADR cancer cell line = assay: Cytotoxicity in cell culture (FIG. 3), NCI-ADR; assay type: cell-based; settings: NCI-ADR cells, in vitro
H460 cancer cell line = assay: Cytotoxicity in cell culture (FIG. 3), H460; assay type: cell-based; settings: H460 cells, in vitro
SF cancer cell line = assay: Cytotoxicity in cell culture (FIG. 3), SF; assay type: cell-based; settings: SF cells, in vitro
MX-1 tumor xenograft = MX-1 tumor xenograft in nude mice, tumor size (FIG. 1); assay type: in vivo; settings: infusion twice daily for five days; compared with control (pharmaceutical carrier only)
[1] = Body weight of treated nude mice with MX-1 xenograft (FIG. 2); assay type: in vivo; settings: infusion twice daily for five days; during the course of treatment

Row | Structure (SMILES) | cytotoxicity (MCF-7 cancer cell line) | cytotoxicity (NCI-ADR cancer cell line) | cytotoxicity (H460 cancer cell line) | cytotoxicity (SF cancer cell line) | rate of tumor growth as measured by the tumor size (MX-1 tumor xenograft) | body weight [1]
1 | C/C(=C\c1csc(C)n1)[C@H]1OC(=O)C[C@H](O)C(C)(C)C(=O)[C@H](C)[C@@H](O)[C@@H](C)CCC[C@@]2(C)O[C@H]2[C@@H]1C [(14R)-14-methylepothilone B] | cytotoxic | cytotoxic | cytotoxic | cytotoxic | – | –
2 | C/C1=C/[C@@H](C)[C@@H](/C(C)=C/c2csc(C)n2)OC(=O)C[C@H](O)C(C)(C)C(=O)[C@H](C)[C@@H](O)[C@@H](C)CCC1 [(14R)-14-methylepothilone D] | essentially inactive | essentially inactive | essentially inactive | essentially inactive | – | –
3 | C/C(=C\c1csc(C)n1)[C@H]1OC(=O)C[C@H](O)C(C)(C)C(=O)[C@H](C)[C@@H](O)[C@@H](C)CCC[C@@]2(C)O[C@H]2[C@H]1C [(14S)-14-methylepothilone B] | essentially inactive | essentially inactive | essentially inactive | essentially inactive | – | –
4 | C/C1=C/[C@H](C)[C@@H](/C(C)=C/c2csc(C)n2)OC(=O)C[C@H](O)C(C)(C)C(=O)[C@H](C)[C@@H](O)[C@@H](C)CCC1 [(14S)-14-methylepothilone D] | cytotoxic | cytotoxic | cytotoxic | cytotoxic | decrease in the rate of tumor growth | slight decrease in body weight
